Source: PubChem BioAssay (NCI)
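A five-concentration, 48-hour dose response in 96-well plates underlies each endpoint, interpolated linearly between surrounding concentrations. GI50: concentration for 50% inhibition of growth. The concentration for full growth arrest is given as TGI.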

What was measured:
Test in all cases: NCI tumour cell line growth inhibition, 48 h
HOP-18 NSCLC = system: HOP-18 NSCLC
SNB-75 CNS = system: SNB-75 CNS
OVCAR-4 ovarian = system: OVCAR-4 ovarian
KM12 colon = system: KM12 colon
XF 498 CNS = system: XF 498 CNS
UO-31 renal = system: UO-31 renal
SN12C renal = system: SN12C renal
SK-MEL-28 melanoma = system: SK-MEL-28 melanoma
SN12K1 renal = system: SN12K1 renal
SNB-78 CNS = system: SNB-78 CNS
UACC-257 melanoma = system: UACC-257 melanoma
PC-3 prostate = system: PC-3 prostate
NCI/ADR-RES ovarian = system: NCI/ADR-RES ovarian
MOLT-4 leukemia = system: MOLT-4 leukemia
MALME-3M melanoma = system: MALME-3M melanoma
DU-145 prostate = system: DU-145 prostate
A498 renal = system: A498 renal
NCI-H226 lung = system: NCI-H226 lung
HCT-116 colon = system: HCT-116 colon
SR leukemia = system: SR leukemia
SK-MEL-5 melanoma = system: SK-MEL-5 melanoma
LOX IMVI melanoma = system: LOX IMVI melanoma
DLD-1 colon = system: DLD-1 colon
DMS 273 small cell lung = system: DMS 273 small cell lung
OVCAR-5 ovarian = system: OVCAR-5 ovarian
OVCAR-8 ovarian = system: OVCAR-8 ovarian
HS 578T breast = system: HS 578T breast
RXF 393 renal = system: RXF 393 renal
RPMI-8226 leukemia = system: RPMI-8226 leukemia
SK-OV-3 ovarian = system: SK-OV-3 ovarian
IGROV1 ovarian = system: IGROV1 ovarian
CCRF-CEM leukemia = system: CCRF-CEM leukemia
HT29 colon = system: HT29 colon
A549 NSCLC = system: A549 NSCLC
786-0 renal = system: 786-0 renal
M14 melanoma = system: M14 melanoma
U251 CNS = system: U251 CNS
SW-620 colon = system: SW-620 colon
HL-60(TB) leukemia = system: HL-60(TB) leukemia
DMS 114 small cell lung = system: DMS 114 small cell lung
K-562 leukemia = system: K-562 leukemia
SF-268 CNS = system: SF-268 CNS
P388 leukemia = system: P388 leukemia
HOP-92 NSCLC = system: HOP-92 NSCLC
NCI-H460 lung = system: NCI-H460 lung
MDA-MB-231 breast = system: MDA-MB-231 breast
NCI-H23 lung = system: NCI-H23 lung
HOP-62 NSCLC = system: HOP-62 NSCLC
COLO 205 colon = system: COLO 205 colon
MCF7 breast = system: MCF7 breast
NCI-H522 lung = system: NCI-H522 lung
SF-295 CNS = system: SF-295 CNS
HCT-15 colon = system: HCT-15 colon
EKVX NSCLC = system: EKVX NSCLC
T-47D breast = system: T-47D breast
SK-MEL-2 melanoma = system: SK-MEL-2 melanoma
TK-10 renal = system: TK-10 renal
SF-539 CNS = system: SF-539 CNS
MDA-MB-435 = system: MDA-MB-435
M19-MEL melanoma = system: M19-MEL melanoma
UACC-62 melanoma = system: UACC-62 melanoma
KM20L2 colon = system: KM20L2 colon
ACHN renal = system: ACHN renal
HCC-2998 colon = system: HCC-2998 colon
P388/ADR leukemia = system: P388/ADR leukemia
OVCAR-3 ovarian = system: OVCAR-3 ovarian
BT-549 breast = system: BT-549 breast
SNB-19 CNS = system: SNB-19 CNS
CAKI-1 renal = system: CAKI-1 renal

Which TGI (HOP-18 NSCLC) does the source give for `Nc1ncnc2c1nnn2C1OC(CO)C(O)C1O` (configuration not stated) here?
The TGI was 11.8 µM.

What about the TGI (SNB-75 CNS) of the same molecule?
Its TGI is 16.9 µM.

What about the TGI (OVCAR-4 ovarian) of the same molecule?
Its TGI is 8.48 µM.

And the TGI (KM12 colon)?
The TGI was 6.68 µM.

And the TGI (XF 498 CNS)?
Its TGI is 47.3 µM.

And the TGI (UO-31 renal)?
The TGI was 6.02 µM.

And the TGI (SN12C renal)?
The TGI was 6.77 µM.

What about the TGI (SK-MEL-28 melanoma) of the same molecule?
Its TGI is 14.9 µM.

What about the TGI (SN12K1 renal) of the same molecule?
The TGI was 9.58 µM.

And the TGI (SNB-78 CNS)?
Its TGI is greater than 100 µM.

And the TGI (UACC-257 melanoma)?
The TGI was 10.9 µM.

What about the GI50 (PC-3 prostate) of the same molecule?
The GI50 was 0.247 µM.

And the TGI (PC-3 prostate)?
The TGI was 5.38 µM.

What about the TGI (NCI/ADR-RES ovarian) of the same molecule?
The TGI was 9.32 µM.

And the TGI (MOLT-4 leukemia)?
The TGI was 22.2 µM.

What about the TGI (MALME-3M melanoma) of the same molecule?
The TGI was 4.62 µM.

What about the GI50 (DU-145 prostate) of the same molecule?
Its GI50 is 0.144 µM.

What about the TGI (DU-145 prostate) of the same molecule?
The TGI was 1.91 µM.

And the TGI (A498 renal)?
Its TGI is 5.68 µM.

And the TGI (NCI-H226 lung)?
Its TGI is 12 µM.

And the TGI (HCT-116 colon)?
Its TGI is 10.5 µM.

And the GI50 (SR leukemia)?
The GI50 was 0.049 µM.

What about the TGI (SR leukemia) of the same molecule?
The TGI was greater than 12.7 µM.

What about the TGI (SK-MEL-5 melanoma) of the same molecule?
The TGI was 5.63 µM.

And the TGI (LOX IMVI melanoma)?
Its TGI is 3.77 µM.

What about the TGI (DLD-1 colon) of the same molecule?
The TGI was 25.5 µM.

And the TGI (DMS 273 small cell lung)?
The TGI was 13.6 µM.

What about the TGI (OVCAR-5 ovarian) of the same molecule?
The TGI was 15.4 µM.

What about the TGI (OVCAR-8 ovarian) of the same molecule?
Its TGI is 8.97 µM.

What about the GI50 (HS 578T breast) of the same molecule?
Its GI50 is 0.467 µM.

What about the TGI (HS 578T breast) of the same molecule?
The TGI was 4.72 µM.

And the GI50 (RXF 393 renal)?
Its GI50 is 0.271 µM.

And the TGI (RXF 393 renal)?
The TGI was 1.51 µM.

And the TGI (RPMI-8226 leukemia)?
The TGI was 5.71 µM.

What about the TGI (SK-OV-3 ovarian) of the same molecule?
Its TGI is 1.95 µM.

What about the TGI (IGROV1 ovarian) of the same molecule?
Its TGI is 3.95 µM.

What about the TGI (CCRF-CEM leukemia) of the same molecule?
Its TGI is 27.9 µM.

What about the TGI (HT29 colon) of the same molecule?
The TGI was 21.9 µM.

And the TGI (A549 NSCLC)?
The TGI was 19.2 µM.

And the GI50 (786-0 renal)?
The GI50 was 0.38 µM.

And the TGI (786-0 renal)?
Its TGI is 14 µM.

And the GI50 (M14 melanoma)?
Its GI50 is 0.261 µM.

What about the TGI (M14 melanoma) of the same molecule?
The TGI was 4.91 µM.

What about the TGI (U251 CNS) of the same molecule?
The TGI was 37.8 µM.

What about the TGI (SW-620 colon) of the same molecule?
The TGI was 8.35 µM.

What about the TGI (HL-60(TB) leukemia) of the same molecule?
Its TGI is 2.16 µM.

And the TGI (DMS 114 small cell lung)?
Its TGI is 17.1 µM.

What about the TGI (K-562 leukemia) of the same molecule?
Its TGI is 13.9 µM.

And the TGI (SF-268 CNS)?
Its TGI is 18.8 µM.

And the TGI (P388 leukemia)?
Its TGI is 16.1 µM.

And the TGI (HOP-92 NSCLC)?
Its TGI is 7 µM.

What about the TGI (NCI-H460 lung) of the same molecule?
Its TGI is 5.64 µM.

And the GI50 (MDA-MB-231 breast)?
The GI50 was 0.232 µM.

What about the TGI (MDA-MB-231 breast) of the same molecule?
The TGI was 3.99 µM.

And the TGI (NCI-H23 lung)?
The TGI was 10.8 µM.

What about the TGI (HOP-62 NSCLC) of the same molecule?
Its TGI is 5.78 µM.

And the TGI (COLO 205 colon)?
The TGI was 2.73 µM.

And the TGI (MCF7 breast)?
Its TGI is 16.8 µM.

What about the TGI (NCI-H522 lung) of the same molecule?
The TGI was 4.51 µM.

And the TGI (SF-295 CNS)?
Its TGI is 7.59 µM.

What about the TGI (HCT-15 colon) of the same molecule?
Its TGI is 20.6 µM.

And the TGI (EKVX NSCLC)?
Its TGI is 27.5 µM.

And the GI50 (T-47D breast)?
Its GI50 is 0.265 µM.

And the TGI (T-47D breast)?
Its TGI is 4.81 µM.

And the TGI (SK-MEL-2 melanoma)?
Its TGI is 1.74 µM.

And the GI50 (TK-10 renal)?
The GI50 was 0.151 µM.

What about the TGI (TK-10 renal) of the same molecule?
The TGI was 3.39 µM.

What about the TGI (SF-539 CNS) of the same molecule?
The TGI was 9.04 µM.

And the GI50 (MDA-MB-435)?
The GI50 was 0.273 µM.

What about the TGI (MDA-MB-435) of the same molecule?
Its TGI is 2.44 µM.

What about the TGI (M19-MEL melanoma) of the same molecule?
Its TGI is 39.2 µM.

And the TGI (UACC-62 melanoma)?
Its TGI is 4.72 µM.

What about the TGI (KM20L2 colon) of the same molecule?
Its TGI is greater than 74.3 µM.

And the GI50 (ACHN renal)?
Its GI50 is 0.141 µM.

What about the TGI (ACHN renal) of the same molecule?
Its TGI is 8.84 µM.

What about the TGI (HCC-2998 colon) of the same molecule?
Its TGI is 5.32 µM.

And the TGI (P388/ADR leukemia)?
The TGI was 26.7 µM.

And the TGI (OVCAR-3 ovarian)?
The TGI was 9.26 µM.

What about the GI50 (BT-549 breast) of the same molecule?
Its GI50 is 0.496 µM.

And the TGI (BT-549 breast)?
Its TGI is 5.75 µM.

What about the TGI (SNB-19 CNS) of the same molecule?
The TGI was greater than 52.5 µM.

What about the TGI (CAKI-1 renal) of the same molecule?
The TGI was 2.88 µM.
